Test results: patent US20040096356A1, “Assay device for determining analytes in a liquid dairy product” (priority 1997, published 2004)

Target: T1, receptor BlaR-CTD (Bacillus licheniformis, UniProt P12287)
T1 construct: the receptor BlaR-CTD is the carboxy-terminal region of BlaR
Assay: 3-minute rapid test: strip test for β-lactam antibiotics in milk using BlaR-CTD
Assay type: binding
Settings: for Intensity 1st band: scale 0 to 10, reference band 6, 47° C., 1 min incubation + 2 min migration
Source text: According to a preferred embodiment of the invention an identifier is used which comprises a receptor sensitive to antibiotics having a β-lactam ring, which receptor is obtained from Bacillus licheniformis, such as the receptor BlaR or the receptor BlaR-CTD. The isolation and the peptide sequence of the protein BlaR are described in Y. Zhu et al., J. Bacteriol., 1137-1141 (1990); the receptor BlaR-CTD is the carboxy-terminal region of BlaR, whose isolation and peptide sequence are described in B. Joris et al., FEMS Microbiology Letters, 107-114 (1990).
This example illustrates the detection in milk of antibiotics having a β-lactam ring which are monitored by the health authorities. The test described in this example uses the receptor BlaR-CTD coupled with gold beads, which serve as labelling agents, and uses a support which is in the form of an assay device comprising a solid support on which membranes are fixed.
3.79 ml of a solution of recognition agent BlaR-CTD having a concentration of 6.6 mg/ml are taken up in a sodium phosphate buffer, 20 mM pH 7. To this solution of BlaR-CTD are then added 41.71 ml of bicarbonate buffer (0.1 M sodium bicarbonate, pH 9) and 2 ml of a solution of N-hydroxysuccinimide 6-(biotinamido)caproic ester containing 2.23 mg/ml likewise of bicarbonate buffer. This solution is stirred gently on a LABINCO stirrer for tubes on a rotary axis (available from VEL, Belgium) at a rate of 2 revolutions/minute for 2 hours at ambient temperature and away from light. 2.5 ml of a solution of Tris buffer, 1 M pH 8 are incubated with the reaction mixture under the same conditions for 30 minutes. The solution thus obtained is dialysed against HNM buffer (Hepes 100 mM, pH 8, NaCl 100 mM, MgCl2 50 mM) for 24 hours. In this way a biotinylated BlaR-CTD solution is obtained which is diluted in HNM-BSA buffer (Hepes 500 mM, pH 8, NaCl 500 mM, MgCl2 250 mM, BSA 10 mg/ml) to a concentration of 250 μg of biotinylated BlaR-CTD per ml of buffer. This solution is stored at −20° C.
The biotinylated BlaR-CTD solution prepared in Example 3.1.1 is diluted 114.7 times with the HNM-BSA buffer (Hepes 500 mM, pH 8, NaCl 500 mM, MgCl2 250 mM, BSA 10 mg/ml). At room temperature, 22.5 parts by volume of this dilute biotinylated BlaR-CTD solution, 7.5 parts by volume of HNM-BSA buffer, 9.27 parts by volume of the gold particle suspension used to label the biotinylated BlaR-CTD and 6 parts by volume of reference gold particle suspension are mixed (see Example 3.1.4 below).
The first capture substance makes it possible to fix the BlaR-CTD coupled with the gold beads present in excess relative to the quantity of antibiotic present in the sample.
Assay devices containing membranes (2), (3) and (4) are used, assembled in accordance with the procedure described in Example 1.1. The membrane (3) of these devices carries on the proximal side the capture substance described in Example 32.1. and on the distal side the capture substance described in Example 3.2.2. The capture substances were deposited in accordance with the procedure described in Example 1.2.
7 samples of fresh milk are prepared, containing 0; 1; 2; 3; 4; 5 and 6 ppb, respectively, of penicillin G. Each of these solutions is then analysed as follows.
An aliquot is taken of 200 μl of milk sample and 45.27 μl of solution prepared in Example 3.1.3, and is placed in a glass flask. This mixture is incubated at 47° C. for 1 minute. An assay device is taken and is placed vertically in the glass flask such that the first end of the assay device is in contact with the mixture and such that the second end rests on the wall of the glass flask. The mixture is allowed to migrate over the assay device while the assembly is incubated at 47° C. for 2 minutes.
An intensity value ranging from 0 to 10 is awarded to the bands detected, the value 10 being given to the most intense band and the value 0 being given to the least intense band. On this scale, a value of 6 is awarded to the reference band. […]

T1 sequence (P12287 340-601): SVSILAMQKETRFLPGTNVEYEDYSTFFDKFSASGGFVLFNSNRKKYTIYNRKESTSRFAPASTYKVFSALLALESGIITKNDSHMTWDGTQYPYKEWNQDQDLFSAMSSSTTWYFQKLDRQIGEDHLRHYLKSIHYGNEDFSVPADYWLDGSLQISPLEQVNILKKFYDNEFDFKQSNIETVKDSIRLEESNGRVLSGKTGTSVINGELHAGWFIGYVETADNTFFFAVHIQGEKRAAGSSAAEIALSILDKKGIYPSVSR

CC1(C)S[C@@H]2[C@H](NC(=O)Cc3ccccc3)C(=O)N2[C@H]1C(=O)O [Penicillin G, penicillin G]
Intensity 1st band (1 ppb penicillin G in fresh milk): 9 | Intensity 1st band (2 ppb penicillin G in fresh milk): 9 | Intensity 1st band (3 ppb penicillin G in fresh milk): 4 | Intensity 1st band (4 ppb penicillin G in fresh milk): 0 | Intensity 1st band (5 ppb penicillin G in fresh milk): 0 | Intensity 1st band (6 ppb penicillin G in fresh milk): 0 | lowest concentration detected in a milk sample (in 3 minutes, positive when first band is less intense than second band): less than 4 ppb
